In PubChem BioAssay (NCI):
Converted amounts (≈) assume the structure as drawn.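 The compound was tested at five concentrations on cells cultured in 96-well plates, with a 48-hour exposure period. GI50 is the concentration that inhibits growth by half. Definition used: TGI = concentration required for complete inhibition of growth.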 Where a SMILES comes first, the peptide text is derived from it. The star is where a group is joined. Boc = CC(C)(C)OC(=O)*; OBn = c1ccc(CO*)cc1

What was measured:
Assay in all cases: NCI-60 cell line screen, 48 h
SK-OV-3 ovarian = system: SK-OV-3 ovarian
UACC-257 melanoma = system: UACC-257 melanoma
T-47D breast = system: T-47D breast
SK-MEL-28 melanoma = system: SK-MEL-28 melanoma
HCT-116 colon = system: HCT-116 colon
HL-60(TB) leukemia = system: HL-60(TB) leukemia
SNB-19 CNS = system: SNB-19 CNS
CAKI-1 renal = system: CAKI-1 renal
LOX IMVI melanoma = system: LOX IMVI melanoma
UO-31 renal = system: UO-31 renal

SMILES	TGI (SK-OV-3 ovarian)	TGI (UACC-257 melanoma)	TGI (T-47D breast)	TGI (SK-MEL-28 melanoma)	TGI (HCT-116 colon)	TGI (HL-60(TB) leukemia)	TGI (SNB-19 CNS)	TGI (CAKI-1 renal)	TGI (LOX IMVI melanoma)	TGI (UO-31 renal)	GI50 (SK-OV-3 ovarian) [µg/mL]	GI50 (UACC-257 melanoma) [µg/mL]	GI50 (T-47D breast) [µg/mL]	GI50 (SK-MEL-28 melanoma) [µg/mL]	GI50 (HCT-116 colon) [µg/mL]	GI50 (HL-60(TB) leukemia) [µg/mL]	GI50 (SNB-19 CNS) [µg/mL]	GI50 (CAKI-1 renal) [µg/mL]	GI50 (LOX IMVI melanoma) [µg/mL]	GI50 (UO-31 renal) [µg/mL]
O=c1[nH]c(N/N=C\C(O)C(O)C(O)CO)nc2ccccc12 (centres undefined)	> 100 µM	> 100 µM	> 100 µM	> 100 µM	> 100 µM	> 100 µM	> 100 µM	> 100 µM	> 100 µM	> 100 µM	–	–	–	–	–	–	–	–	–	–
Cc1cc(=O)oc2cc(O)ccc12	> 100 µM	> 100 µM	> 100 µM	> 100 µM	> 100 µM	> 100 µM	> 100 µM	> 100 µM	> 100 µM	> 100 µM	–	–	–	–	–	–	–	–	–	–
Cc1c(-c2ccccc2)c(C#N)c2nnc(C(N)=O)c(N)n12	> 100 µM	> 100 µM	> 100 µM	> 100 µM	> 100 µM	> 100 µM	> 100 µM	> 100 µM	> 100 µM	> 100 µM	–	–	–	–	–	–	–	–	–	–
COc1cc2c(/C=C3/C(=O)N(c4ccccc4)c4ccccc43)c(Cl)[nH]c2cc1C	4.78 µM	21.3 µM	7.5 µM	> 100 µM	16.6 µM	> 23.1 µM	> 54.6 µM	> 59.5 µM	10.2 µM	> 26.9 µM	–	–	–	–	–	–	–	–	–	–
O=C1C(Br)=C(c2ccccc2)S(=O)c2ccccc21 (centres undefined)	32.9 µM	25.8 µM	10.6 µM	42.1 µM	20.4 µM	6.63 µM	39.9 µM	21.8 µM	28.2 µM	27.2 µM	–	–	–	–	–	–	–	–	–	–
CC(=Nc1ccncc1)C(C)=Nc1ccncc1	> 100 µM	> 100 µM	77.7 µM	> 100 µM	83.9 µM	87.2 µM	68.5 µM	30.4 µM	42.1 µM	30.8 µM	–	–	–	–	–	–	–	–	–	–
[N-]=[N+]=Nc1ccc(CNc2cc(=O)[nH]c(=O)[nH]2)cc1	> 100 µM	> 100 µM	> 100 µM	99.6 µM	> 100 µM	> 100 µM	> 100 µM	> 100 µM	> 100 µM	> 100 µM	–	–	–	–	–	–	–	–	–	–
Cc1ccc(SC(=O)N2C(=S)NC(=NC3CCCCC3)C23CCCCC3)cc1	> 100 µM	> 100 µM	> 100 µM	> 100 µM	> 100 µM	> 100 µM	> 100 µM	> 100 µM	> 100 µM	> 100 µM	–	–	–	–	–	–	–	–	–	–
Cc1c(NC2(C)C(=O)N(/N=C/c3ccccc3)N=C2c2ccccc2)n[nH]c1-c1ccccc1 (centres undefined)	> 100 µM	> 100 µM	> 100 µM	> 100 µM	> 100 µM	> 100 µM	> 100 µM	> 100 µM	> 100 µM	> 100 µM	–	–	–	–	–	–	–	–	–	–
COc1cc(/C=C2/N=C(c3ccccc3)N(C3=NNC4(C(=O)N3)c3ccccc3-c3ccccc34)NC2=O)ccc1O	37.8 µg/mL	51.8 µg/mL	65 µg/mL	60.4 µg/mL	47.3 µg/mL	> 150 µg/mL	87.3 µg/mL	75.1 µg/mL	66.8 µg/mL	111 µg/mL	19 (≈ 34.1 µM)	27.2 (≈ 49 µM)	17 (≈ 30.6 µM)	31.3 (≈ 56.2 µM)	26.1 (≈ 46.8 µM)	51.2 (≈ 91.9 µM)	34.6 (≈ 62.1 µM)	22.4 (≈ 40.3 µM)	32.3 (≈ 58 µM)	33.4 (≈ 60 µM)
CC(C)(C)OC(=O)NC(Cc1ccccc1)C(=O)NC(Cc1ccccc1)C(=O)NCC(=O)OCc1ccccc1 (stereo not drawn) (Boc-Phe-Phe-Gly-OBn; configuration not given here)	46 µM	> 100 µM	> 100 µM	42.7 µM	40.2 µM	57.6 µM	> 100 µM	> 100 µM	24.5 µM	> 100 µM	–	–	–	–	–	–	–	–	–	–
C/C(O)=C/c1nc2ccc([N+](=O)[O-])cc2nc1/C=C(/C)O	> 100 µM	72.7 µM	87.6 µM	> 100 µM	> 100 µM	> 100 µM	> 100 µM	> 100 µM	> 100 µM	> 100 µM	–	–	–	–	–	–	–	–	–	–
COc1cccc(-c2cc(=O)c3ccc(C)nc3[nH]2)c1	> 60.6 µM	–	> 100 µM	> 100 µM	> 38.1 µM	0.0532 µM	> 100 µM	> 81.8 µM	> 100 µM	> 100 µM	–	–	–	–	–	–	–	–	–	–
Cn1c2ccccc2c2c3c(c4c5ccccc5n(C)c4c21)C(=O)c1ccccc1C3=O	> 100 µM	> 100 µM	> 100 µM	> 100 µM	> 100 µM	> 100 µM	52.4 µM	> 100 µM	> 100 µM	> 100 µM	–	–	–	–	–	–	–	–	–	–
O=S1(=O)c2ccccc2NC(=S)CC1c1ccccc1 (centres undefined)	> 100 µM	> 100 µM	> 100 µM	> 100 µM	> 100 µM	> 100 µM	> 100 µM	> 100 µM	> 100 µM	> 100 µM	–	–	–	–	–	–	–	–	–	–
